Measured values published in patent US10633669B2, “Herbicide-resistant protein, encoding gene and use thereof” (BEIJING DABEINONG TECHNOLOGY GROUP CO., LTD., priority 2015, dated 2020).

What was measured:
[1] = tested on: Arabidopsis T1 plants transformed with 24DT11 nucleotide sequence; test: Herbicide resistance effect test of transgenic Arabidopsis T1 plants (spray); format: in vivo, Arabidopsis thaliana; settings: genotype 24DT11
Description: (§1) 24DT11 gene was used to transform Arabidopsis for the first time. At first, T1 transformants were selected from the background of un-transformed seeds, using glufosinate-ammonium selection scheme. About 20000 T1 seeds are screened among which 282 strains of T1 generation positive transformants (PAT gene) were identified, i.e. the transformation efficiency was about 1.4%. Herbicide resistance effect tests to 2,4-D dimethyl ammonium salt and agroxone of Arabidopsis T1 plants transformed with 24DT11 nucleotide sequence, control nucleotide sequence respectively and wild-type Arabidopsis plants were performed after 18 days of planting.
(§2) Arabidopsis T1 plants transformed with 24DT11 nucleotide sequence, control nucleotide sequence respectively and wild-type Arabidopsis plants were sprayed with 2,4-D dimethyl ammonium salt (560 g ae/ha, 1-fold concentration in field), agroxone (560 g ae/ha, 1-fold concentration in field) and blank solvent (water). Resistance conditions of the plants were counted 7 days and 14 days after spraying. Plants with growth conditions consistent with blank solvent (water) 7 days after spaying were classified as highly resistant plants; Plants with curly rosette leaves 7 days after spaying were classified as moderately resistant plants; Plants incapable of bolting 14 days after spaying were classified as low-resistant plants and the dead plants 14 days after spaying were classified as non-resistant plants. Because each Arabidopsis T1 plant is an independent transformation event, significant differences of individual T1 responses can be expected under a given dose.

[2] = tested on: Arabidopsis T1 plants transformed with control nucleotide sequence; test: Herbicide resistance effect test of Arabidopsis T1 plants with control sequence (spray); format: in vivo, Arabidopsis thaliana; settings: genotype Control, 560 g ae/ha
Description: as §1, §2

[3] = tested on: wild-type Arabidopsis plants; test: Herbicide resistance effect test of wild-type Arabidopsis (spray); format: in vivo, Arabidopsis thaliana; settings: genotype Wild, 560 g ae/ha
Description: as §1, §2

[4] = tested on: Soybean plants containing 24DT11 nucleotide sequence (S1, S2 and S3); test: Herbicide-resistance effect of transgenic soybean plants (spray, damage degree); format: in vivo; settings: for Average damage % 6HAT: 6 hours after spraying; for Average damage % 2DAT: 2 days after spraying; for Average damage % 7DAT: 7 days after spraying; for Average damage % 14DAT: 14 days after spraying
Protocol: (§3) Herbicide resistance effects tests to 2,4-D dimethyl ammonium salt and agroxone of soybean plants containing 24DT11 nucleotide sequence and control nucleotide sequence respectively and wild type soybean plants (stages V3-V4) were performed respectively.
(§4) Soybean plants containing 24DT11 nucleotide sequence, control nucleotide sequence and wild type soybean plants were taken and spayed with 2,4-D dimethyl ammonium salt (2240 g ae/ha, four-folds concentration in field), agroxone (2240 g ae/ha, four-folds concentration in field) and blank solvent (water). Take statistics of the damage degree of each plant caused by herbicides according to the curling degree of leaves and the damage degree of growing point six hours ([…]), two days (2DAT), seven days (7DAT) and 14 days (14DAT) after spraying respectively: if leaves are flat like wild-type leaves and the growing point is intact, the damage degree is 0%; if leaves curl up and wilt and the growing point is died, the damage degree is 100%. There are three strains contained a transferred 24DT11 nucleotide sequence (S1, S2 and S3), two strains contained a transferred control sequence (S4 and S5) and one wild-type strain (CK1) in total; select 10˜15 plants from each strain for testing.

[5] = tested on: Soybean plants containing control nucleotide sequence (S4 and S5); test: Herbicide-resistance effect of soybean plants with control sequence (spray, damage degree); format: in vivo; settings: 2240 g ae/ha; for Average damage % 6HAT: 6 hours after spraying; for Average damage % 2DAT: 2 days after spraying; for Average damage % 7DAT: 7 days after spraying; for Average damage % 14DAT: 14 days after spraying
Protocol: as §3, §4

[6] = tested on: wild type soybean plants (CK1); test: Herbicide-resistance effect of wild type soybean (spray, damage degree); format: in vivo; settings: wild-type soybean strain CK1, 2240 g ae/ha
Protocol: as §3, §4

[7] = tested on: Corn plants containing 24DT11 nucleotide sequence (S6, S7 and S8); test: Herbicide-resistance effect test of transgenic corn plants (spray, prop root development); format: in vivo; settings: 21 days after spraying
Protocol: (§5) Herbicide resistance effects tests to 2,4-D dimethyl ammonium salt and agroxone of corn plants containing 24DT11 nucleotide sequence, control nucleotide sequence respectively and wild type corn plants (stages V3-V4) were performed respectively.
(§6) Corn plants containing 24DT11 nucleotide sequence, control nucleotide sequence respectively and wild type corn plants were taken and spayed with 2,4-D dimethyl ammonium salt (8960 g ae/ha, 16-folds concentration in field), agroxone (8960 g ae/ha, 16-folds concentration in field) and blank solvent (water) respectively. Prop root development was counted 21 days after spaying. Three strains (S6, S7 and S8) of corn plants transformed with 24DT11 nucleotide sequence, two strains (S9 and S10) of corn plants transformed with control nucleotide sequence and 1 strain of wild type (CK2) corn were selected and 10-15 plants from each stain were tested.

[8] = tested on: Corn plants containing control nucleotide sequence (S9 and S10); test: Herbicide-resistance effect test of corn plants with control sequence (spray, prop root development); format: in vivo; settings: 8960 g ae/ha, 21 days after spraying
Protocol: as §5, §6

[9] = tested on: wild type corn plants (CK2); test: Herbicide-resistance effect test of wild type corn (spray, prop root development); format: in vivo; settings: wild type corn strain CK2; 8960 g ae/ha; 21 days after spraying
Protocol: as §5, §6

[10] = curly rosette leaves 7 days after spraying
[11] = growth consistent with blank solvent 7 days after spraying
[12] = incapable of bolting 14 days after spraying
[13] = soybean strain S1 (24DT11), 2240 g ae/ha
[14] = soybean strain S2 (24DT11), 2240 g ae/ha
[15] = soybean strain S3 (24DT11), 2240 g ae/ha
[16] = soybean strain S4 (control sequence)
[17] = soybean strain S5 (control sequence)
[18] = corn strain S6 (24DT11), 8960 g ae/ha
[19] = corn strain S7 (24DT11), 8960 g ae/ha
[20] = corn strain S8 (24DT11), 8960 g ae/ha
[21] = corn strain S9 (control sequence)
[22] = corn strain S10 (control sequence)

`CNC.O=C(O)COc1ccc(Cl)cc1Cl` [2,4-D dimethyl ammonium salt] was tested, and the “High resistant (number of plants)” value ([1]; 560 g ae/ha (1-fold field concentration), growth consistent with blank solvent 7 days after spraying) was 26, the “Moderate resistant (number of plants)” value ([1]; 560 g ae/ha, curly rosette leaves 7 days after spraying) was 2 and the “Non-resistant (number of plants)” value ([1]; 560 g ae/ha, dead 14 days after spraying) was 3. For the same molecule, the “Low resistant (number of plants)” value ([1]; 560 g ae/ha, incapable of bolting 14 days after spraying) was 1, the “Moderate resistant (number of plants)” value [2, 10] was 0 and the “Non-resistant (number of plants)” value ([2]; dead 14 days after spraying) was 32. The “High resistant (number of plants)” value [2, 11] was 0, the “Low resistant (number of plants)” value [2, 12] was 0 and the “Moderate resistant (number of plants)” value [3, 10] was 0. The “Non-resistant (number of plants)” value ([3]; dead 14 days after spraying) was 32, the “High resistant (number of plants)” value [3, 11] was 0 and the “Low resistant (number of plants)” value [3, 12] was 0. The “Average damage % 6HAT” value ([4]; soybean strain S1 (24DT11), 2240 g ae/ha (4-fold field)) was 7%, the “Average damage % 2DAT” value [4, 13] was 4% and the “Average damage % 7DAT” value [4, 13] was 0%. The “Average damage % 14DAT” value [4, 13] was 0%, the “Average damage % 6HAT” value [4, 14] was 5% and the “Average damage % 2DAT” value [4, 14] was 2%. The “Average damage % 7DAT” value [4, 14] was 0%, the “Average damage % 14DAT” value [4, 14] was 0% and the “Average damage % 6HAT” value [4, 15] was 13%. The “Average damage % 2DAT” value [4, 15] was 6%, the “Average damage % 7DAT” value [4, 15] was 2% and the “Average damage % 14DAT” value [4, 15] was 0%. The “Average damage % 6HAT” value [5, 16] was 46%, the “Average damage % 2DAT” value [5, 16] was 76% and the “Average damage % 7DAT” value [5, 16] was 96%. The “Average damage % 14DAT” value [5, 16] was 100%, the “Average damage % 6HAT” value [5, 17] was 53% and the “Average damage % 2DAT” value [5, 17] was 77%. The “Average damage % 7DAT” value [5, 17] was 91%, the “Average damage % 14DAT” value [5, 17] was 100% and the “Average damage % 6HAT” value ([6]; 6 hours after spraying) was 48%. For the same molecule, the “Average damage % 2DAT” value ([6]; 2 days after spraying) was 72%, the “Average damage % 7DAT” value ([6]; 7 days after spraying) was 94% and the “Average damage % 14DAT” value ([6]; 14 days after spraying) was 100%. For the same molecule, the “Normal development of brace roots (number of plants)” value ([7]; corn strain S6 (24DT11), 8960 g ae/ha (16-fold field)) was 15, the “Abnormal development of brace roots (number of plants)” value (“Abnormal development of brace roots” below) [7, 18] was 0 and the “Proportion of normal development of brace roots” value (“Proportion” for short) [7, 18] was 100.00%. The “Abnormal development of brace roots” value [7, 19] was 0, the “Normal development of brace roots (number of plants)” value [7, 19] was 13 and the “Proportion” value [7, 19] was 100.00%. For the same molecule, the “Abnormal development of brace roots” value [7, 20] was 0, the “Normal development of brace roots (number of plants)” value [7, 20] was 12 and the “Proportion” value [7, 20] was 100.00%. The “Abnormal development of brace roots” value [8, 21] was 13, the “Normal development of brace roots (number of plants)” value [8, 21] was 0 and the “Proportion” value [8, 21] was 0%. The “Abnormal development of brace roots” value [8, 22] was 12, the “Normal development of brace roots (number of plants)” value [8, 22] was 0 and the “Proportion” value [8, 22] was 0%. The “Abnormal development of brace roots” value [9] was 14, the “Normal development of brace roots (number of plants)” value [9] was 0 and the “Proportion” value [9] was 0%.
